Assay results taken from patent US5618931A, “Acetylenes disubstituted with a 5 substituted dihydronaphthyl group and with an aryl or heteroaryl group having retinoid-like biological activity” (Allergan, priority 1994, dated 1997).

Test system: ornithine decarboxylase (ODC), TPA-induced activity
Assay: not given
Details: background statement on retinoic acid; cited from earlier work
In the case of `CC1=C(/C=C/C(C)=C/C=C/C(C)=C/C(=O)O)C(C)(C)CCC1` [Retinoic acid], the “inhibition of TPA induction of ODC activity (in words)” value is listed as “inhibits this induction of ODC activity by TPA”.

Test system: ornithine decarboxylase (ODC), TPA-induced activity
Assay: ODC assay: inhibition of TPA induction of ornithine decarboxylase
Type: biochemical
Details: concentration of the test compound which causes 80% inhibition in the ODC assay (TPA-induced ODC)
From the text: The retinoic acid-like activity of these compounds is confirmed through the classic measure of retinoic acid activity involving the effects of retinoic acid on ornithine decarboxylase. The original work on the correlation between retinoic acid and decrease in cell proliferation was done by Verma & Boutwell, Cancer Research, 1977, 37,2196-2201. That reference discloses that ornithine decarboxylase (ODC) activity increased precedent to polyamine biosynthesis. It has been established elsewhere that increases in polyamine synthesis can be correlated or associated with cellular proliferation. Thus, if ODC activity could be inhibited, cell hyperproliferation could be modulated. Although all cases for ODC activity increases are unknown, it is known that 12-O-tetradecanoylphorbol-13-acetate (TPA) induces ODC activity. […] Activity of exemplary compounds of the present invention in the above-described ODC assay is disclosed in Table 2 which provides the IC80 concentration for the respective exemplary compound. ("IC80 " is that concentration of the test compound which causes 80% inhibition in the ODC assay. By analogy, IC60, for example, is that concentration of the test compound which causes 60% inhibition in the ODC assay.)
`CCOC(=O)c1ccc(C#Cc2ccc3c(c2)C(OC(C)=O)=CCC3(C)C)cc1` [Compound 126, Ethyl 4-[(5-acetoxy-7,8-dihydro-8,8-dimethylnaphth-3-yl)ethynyl]benzoate] gave an IC80 conc of 0.58 nmols.
For `CCOC(=O)c1ccc(C#Cc2ccc3c(c2)C(C)(C)CC=C3OS(=O)(=O)C(F)(F)F)cc1` [Compound 87, Ethyl 4-[(5-trifluoromethylsulfonyloxy-7,8-dihydro-8,8-dimethylnaphth-2-yl)ethynyl]benzoate], the IC80 conc was 16.80 nmols.
In the case of `CCOC(=O)c1ccc(C#Cc2ccc3c(c2)C(Sc2ccccc2)=CCC3(C)C)cc1` [Compound 155, Ethyl 4-[(7,8-dihydro-8,8-dimethyl-5-phenylthionaphth-3yl)ethynyl]benzoate], the IC80 conc is reported as 2.3 nmols.
For `CCOC(=O)c1ccc(C#Cc2ccc3c(c2)C(S(=O)(=O)c2ccccc2)=CCC3(C)C)cc1` [Compound 157, Ethyl 4-[(7,8-dihydro-8,8-dimethyl-5-phenylsulfonylnaphth-3-yl)ethynyl]benzoate], the IC80 conc was < 0.1 nmols.
Compound `CCOC(=O)c1ccc(C#Cc2ccc3c(c2)C(C)(C)CC=C3OC(C)=O)cc1` [Compound 105, Ethyl 4-[(5-acetoxy-7,8-dihydro-8,8-dimethylnaphth-2-yl)ethynyl]benzoate] has an IC80 conc of 0.76 nmols.
With `CCOC(=O)c1ccc(C#Cc2ccc3c(c2)C(OS(=O)(=O)C(F)(F)F)=CCC3(C)C)cc1` [Compound 66, Ethyl 4-[(5-trifluoromethylsulfonyloxy-7,8-dihydro-8,8-dimethylnapth-3-yl)ethynyl]benzoate] the IC80 conc was 17.00 nmols.
